Experimental data from patent US5861424A, “Composition and method for treating cancer” (priority 1995, dated 1999).
Where two headings read alike, the source gives them in different places.

Key:
[1] = tested on: human colon carcinoma cell line CX-1; experiment: Colony formation assay, human colon carcinoma CX-1; assay type: cell-based; conditions: for CX-1 (IC50) / IC50: 24 h treatment, colony count after 7 to 10 days; for Selectivity (ratio of IC50 for CV-1 and IC50 for CX-1): CV-1/CX-1; for IC50: Homo sapiens, Colon carcinoma cell
Description: (§2) Human colon carcinoma cell line CX-1 or normal monkey kidney epithelial cell line CV-1 was chosen as representatives of cancer cells and normal cells, respectively. […] CX-1 cells (2,000 cells/well) and CV-1 cells (1,000 cells/well) were plated in 24-well plastic culture plates. […] The control received culture media only. Cells were treated with compounds of General Formulas (1) to (6) at 37° C. for 24 hours. After rinsing with fresh culture medium three times, the cells were further incubated at 37° C. for 7 to 10 days. Cell colonies were fixed and stained with 2% crystal violet in 70% ethanol for 10 minutes and rinsed in water. […] The selectivity is defined as the ratio of IC50 for CV-1 and IC50 for CX-1.

[2] = tested on: human melanoma LOX cell line; experiment: Colony formation assay, human melanoma LOX; assay type: cell-based; conditions: for IC50: Homo sapiens, LOX, 24 h, read-out: LOX (IC50); for Selectivity (CV-1 IC50 / LOX IC50): CV-1/LOX
Description: (§1) The control received culture media only.

[3] = tested on: human breast carcinoma MCF-7 cell line; experiment: Colony formation assay, human breast carcinoma MCF-7; assay type: cell-based; conditions: for IC50: Homo sapiens, MCF7, 24 h, read-out: MCF-7 (IC50); for Selectivity (CV-1 IC50 / MCF-7 IC50): CV-1/MCF-7
Description: as §1
The Selectivity values, MCF-7 values and CV-1 values for compounds of the General Formulas (1) to (6) used in the present invention are shown in Table VI below.

[4] = tested on: human pancreatic carcinoma CRL 1420 cell line; experiment: Colony formation assay, human pancreatic carcinoma CRL 1420; assay type: cell-based; conditions: Table VII; for IC50: Homo sapiens, 24 h; for IC50 / CRL-1420 (IC50): 24 h treatment; for Selectivity (CV-1 IC50 / CRL-1420 IC50): CV-1/CRL-1420
Description: as §1
The Selectivity values, CRL 1420 values and CV-1 values for compounds of the General Formulas (1) to (6) used in the present invention are shown in Table VII below.

[5] = tested on: normal monkey kidney epithelial cell line CV-1; experiment: Colony formation assay, normal monkey kidney epithelial cells CV-1; conditions: for IC50: Primates, Epithelial cell;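 as to all read-outs here: colonies visualized by crystal violet staining, incubation at 37 °C, IC50 relative to untreated wells given culture medium alone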
Description: as §2

[6] = tested on: human bladder carcinoma EJ cell line; experiment: Colony formation assay, human bladder carcinoma EJ; assay type: cell-based; conditions: for IC50: Homo sapiens, EJ, 24 h, read-out: EJ (IC50); for Selectivity (CV-1 IC50 / EJ IC50): CV-1/EJ
Description: as §1

[7] = Table III, read-out: CX-1 (IC50)
[8] = read-out: CV-1 (IC50), Table III, 24 h treatment, colony count after 7 to 10 days
[9] = read-out: CX-1 (IC50), Table III
[10] = read-out: CV-1 (IC50), Table IV
[11] = read-out: CV-1 (IC50), Table VII
[12] = read-out: CV-1 (IC50), Table VI

Structure (SMILES) | Selectivity (ratio of IC50 for CV-1 and IC50 for CX-1) ([1]; Table III) | IC50 ([2]; Table V, 24 h treatment) [µg/mL] | Selectivity (CV-1 IC50 / LOX IC50) ([2]; Table V) | Selectivity (CV-1 IC50 / MCF-7 IC50) ([3]; Table VI) | IC50 [4] [µg/mL] | Selectivity (CV-1 IC50 / CRL-1420 IC50) [4] | IC50 [1, 7] [µg/mL] | Selectivity (CV-1 IC50 / EJ IC50) ([6]; Table IV) | IC50 [5, 8] [µg/mL] | IC50 [1, 9] [µg/mL] | IC50 ([6]; Table IV, 24 h treatment) [µg/mL] | IC50 [5, 10] [µg/mL] | IC50 ([5]; read-out: CV-1 (IC50), Table V) [µg/mL] | IC50 [5, 11] [µg/mL] | further results
CCN1C=CC=CC1=CC=c1sc(=Cc2sc3ccc4ccccc4c3[n+]2CC)n(CC)c1=O [Compound 278] | 333 | 0.035 | 286 | 111 | 0.04 | 250 |  |  |  |  |  |  |  |  | CX-1 (IC50) ([1]; Table III): 0.03 µg/mL; IC50 [3]: 0.09 µg/mL; IC50 ([5]; read-out: CV-1 (IC50)): 10 µg/mL
CCN1C(=CC=c2sc(=Cc3sc4c5ccccc5ccc4[n+]3CC)n(CC)c2=O)N(CC)c2cc(Cl)ccc21 [Compound 235] | > 400 |  |  |  |  |  | 0.05 | 500 | > 20 |  |  |  |  |  | IC50 [6]: 0.02 µg/mL; IC50 ([5]; read-out: CV-1 (IC50)): 10 µg/mL
CCn1c(=Cc2sc3ccc(Cl)cc3[n+]2CC)sc(=CC=C2N(C)c3ccccc3C2(C)C)c1=O [Compound 214] | 267 | 0.04 | 200 |  | 0.04 | 200 |  | 200 |  | 0.03 | 0.04 | 8 | 8 | 8 | 
CCN1C(=CC=c2sc(=Cc3sc4c5ccccc5ccc4[n+]3CC)n(CC)c2=O)N(CC(F)(F)C(F)F)c2cc(C(F)(F)F)ccc21 [Compound 230] | 375 | 0.06 | 200 | 167 | 0.05 | 300 | 0.05 | 300 | 15 |  | 0.05 | 15 | 15 | 15 | IC50 [3]: 0.09 µg/mL; IC50 [5, 12]: 15 µg/mL
CCN1C(C)=CSC1=CC=c1sc(=Cc2sc3c4ccccc4ccc3[n+]2CC)n(CC)c1=O [Compound 97] | 200 |  | 133 |  |  |  | 0.01 | 154 | 2 |  | 0.013 | 2 | 2 |  | IC50 [2]: 0.015 µg/mL
CCN1CCSC1=CC=c1sc(=Cc2sc3ccc(Cl)cc3[n+]2CC)n(CC)c1=O [Compound 123] | 200 |  |  |  | 0.13 | 154 |  | 154 | 20 | 0.1 | 0.13 | 20 |  | 20 | 
CCN1C(=CC=c2sc(=Cc3sc4ccc5ccccc5c4[n+]3CC)n(CC)c2=O)N(CC)c2ccccc21 [Compound 234] | 333 | 0.03 | 333 | 200 | 0.03 | 333 |  |  |  | 0.03 |  |  |  |  | IC50 ([3]; Table VI, 24 h treatment): 0.05 µg/mL; IC50 ([5]; read-out: CV-1 (IC50)): 10 µg/mL
CCN1C(=CC=c2sc(=Cc3sc4ccccc4[n+]3CC)n(CC)c2=O)Sc2ccc3ccccc3c21 [Compound 37] | 250 | 0.05 | 100 | 100 |  | 167 | 0.02 | 167 |  |  | 0.03 | 5 | 5 |  | MCF-7 (IC50) ([3]; Table VI, 24 h treatment): 0.05 µg/mL; CRL-1420 (IC50) [4]: 0.03 µg/mL
CCN1C(=CC=c2sc(=Cc3ccc4ccccc4[n+]3CC)n(CC)c2=O)Sc2ccc3ccccc3c21 [Compound 40] | 257 |  |  |  | 0.05 |  | 0.02 |  | 5.14 |  |  |  |  | 2 | 
CCn1c(=Cc2oc3c4ccccc4ccc3[n+]2CC)sc(=CC=C2N(C)c3ccccc3C2(C)C)c1=O [Compound 208] | 600 | 0.039 | 154 |  |  |  | 0.01 |  | 6 |  |  |  | 6 |  | 
CCn1c(=Cc2sc3ccccc3[n+]2CC)sc(=CC=C2N(C)c3ccccc3C2(C)C)c1=O [Compound 206] | 600 | 0.03 | 196 | 125 | 0.03 | 196 | 0.01 | 462 | 6 |  | 0.013 | 6 | 6 | 6 | IC50 ([3]; Table VI, 24 h treatment): 0.048 µg/mL; IC50 [5, 12]: 6 µg/mL
CCN1C(=CC=c2sc(=Cc3sc4ccccc4[n+]3CC)n(CC)c2=O)Sc2ccc3ccccc3c21 [Compound 178] | 200 |  |  | 435 |  | 154 |  |  |  |  |  |  |  |  | CX-1 (IC50) ([1]; Table III): 0.01 µg/mL; MCF-7 (IC50) ([3]; Table VI, 24 h treatment): 0.0046 µg/mL; CRL-1420 (IC50) [4]: 0.013 µg/mL; CV-1 (IC50) ([5]; Table III, 24 h treatment, colony count after 7 to 10 days): 2 µg/mL; CV-1 (IC50) ([5]; Table VI): 2 µg/mL; CV-1 (IC50) ([5]; Table VII): 2 µg/mL
CCN1CCSC1=CC=c1sc(=Cc2sc3ccc(C)cc3[n+]2CC)n(CC)c1=O [Compound 124] | 167 | 0.04 | 125 |  | 0.04 | 125 |  | 100 | 5 | 0.03 | 0.05 | 5 | 5 | 5 | 
CCn1c(=Cc2sc3ccccc3[n+]2CC)sc(=CC=C2SCCN2C)c1=O [Compound 141] | 400 | 0.064 | 312 | 109 | 0.045 | 444 | 0.05 |  | 20 |  |  |  | 20 | 20 | IC50 ([3]; Table VI, 24 h treatment): 0.184 µg/mL; IC50 [5, 12]: 20 µg/mL
CCN1CCSC1=CC=c1sc(=Cc2sc3cc(OC)c(OC)cc3[n+]2CC)n(CC)c1=O [Compound 134] | 100 |  |  |  |  |  |  |  |  | 0.1 |  |  |  |  | IC50 ([5]; read-out: CV-1 (IC50)): 10 µg/mL
